Where two headings read alike, the source gives them in different places. Square brackets hold non-standard residues; d marks the D form. Peptide text beside a SMILES is read from it. Aib = CC(C)(N)C(=O)O
Biological target: glucagon receptor (Homo sapiens, UniProt P47871)
Assay: Functional assay, cAMP synthesis: luciferase reporter in HEK293 cells co-transfected with glucagon receptor
[1] = EC50, Glucagon Receptor, Table 13

glucagon receptor, sequence (P47871 26-477): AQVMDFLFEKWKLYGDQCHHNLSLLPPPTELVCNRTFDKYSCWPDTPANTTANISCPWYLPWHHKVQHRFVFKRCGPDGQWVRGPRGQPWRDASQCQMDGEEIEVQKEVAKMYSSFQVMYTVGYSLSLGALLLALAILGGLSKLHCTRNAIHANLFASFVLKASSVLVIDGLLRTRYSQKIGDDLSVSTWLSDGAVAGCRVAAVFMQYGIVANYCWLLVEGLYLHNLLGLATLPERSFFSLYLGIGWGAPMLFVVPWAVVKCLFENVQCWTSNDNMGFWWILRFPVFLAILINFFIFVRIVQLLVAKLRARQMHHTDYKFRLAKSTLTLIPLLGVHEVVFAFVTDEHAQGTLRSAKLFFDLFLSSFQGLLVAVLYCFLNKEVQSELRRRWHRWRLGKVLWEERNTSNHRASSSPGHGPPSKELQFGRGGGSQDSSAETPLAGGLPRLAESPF
Procedure: Peptide absorbance readings were obtained from UV Absorbance measurements at 280 nm on a Genesys 6 Spectrophotometer (Thermo Electron Corporation). Beer's Law was used to calculate solution concentrations based on the number of tryptophan and tyrosine residues in each analog. At the end of the incubation, 100 μL LucLite luminescence substrate reagent was added to each well, the plate sealed and shaken, and placed into a Wallac Trilux luminescence counter for cAMP detection.
HEK293 cells were co-transfected with the GcgR or GLP-1R cDNAs and a luciferase reporter gene-linked to a cAMP response element (CRE). […] The plate was incubated for 10 min in the dark and light output was quantified on a MicroBeta1450 liquid scintillation counter (Perkin-Elmer, Wellesley, Mass.).

Row | Compound | EC50 [1] [nM] | EC50 (EC50 at Glucagon Receptor, Table 17) [nM] | EC50 (read-out: EC50 at Glucagon Receptor, Table 22) [nM]
1 | CCCCCCCCCCCCCCCC(=O)N[C@@H](Cc1c[nH]c2ccccc12)C(=O)NCCCC[C@H](NC(=O)[C@H](CC(=O)O)NC(=O)[C@H](CO)NC(=O)[C@@H](NC(=O)[C@H](Cc1ccccc1)NC(=O)[C@@H](NC(=O)CNC(=O)[C@H](CCC(N)=O)NC(=O)[C@H](CO)NC(=O)[C@@H](N)Cc1c[nH]cn1)[C@@H](C)O)[C@@H](C)O)C(=O)N[C@@H](CO)C(=O)N[C@@H](CCCCN)C(=O)N[C@@H](Cc1ccc(O)cc1)C(=O)N[C@@H](CC(C)C)C(=O)N[C@@H](CC(=O)O)C(=O)N[C@@H](CCC(=O)O)C(=O)N[C@@H](CCCNC(=N)N)C(=O)N[C@@H](CCCNC(=N)N)C(=O)N[C@@H](C)C(=O)N[C@@H](CCCCN)C(=O)N[C@@H](CC(=O)O)C(=O)N[C@@H](Cc1ccccc1)C(=O)N[C@H](C(=O)N[C@@H](CCC(N)=O)C(=O)N[C@@H](Cc1c[nH]c2ccccc12)C(=O)N[C@@H](CC(C)C)C(=O)N[C@@H](CCSC)C(=O)N[C@@H](CC(N)=O)C(=O)N[C@H](C(N)=O)[C@@H](C)O)C(C)C [E16 K20-glucagon-NH2 with K^10—W—C16] | 0.14 |  | 
2 | CCCCCCCCCCCCCCCCCC(=O)N[C@@H](Cc1c[nH]c2ccccc12)C(=O)NCCCC[C@H](NC(=O)[C@H](CC(=O)O)NC(=O)[C@H](CO)NC(=O)[C@@H](NC(=O)[C@H](Cc1ccccc1)NC(=O)[C@@H](NC(=O)CNC(=O)[C@H](CCC(N)=O)NC(=O)[C@H](CO)NC(=O)[C@@H](N)Cc1c[nH]cn1)[C@@H](C)O)[C@@H](C)O)C(=O)N[C@@H](CO)C(=O)N[C@@H](CCCCN)C(=O)N[C@@H](Cc1ccc(O)cc1)C(=O)N[C@@H](CC(C)C)C(=O)N[C@@H](CC(=O)O)C(=O)N[C@@H](CCC(=O)O)C(=O)N[C@@H](CCCNC(=N)N)C(=O)N[C@@H](CCCNC(=N)N)C(=O)N[C@@H](C)C(=O)N[C@@H](CCCCN)C(=O)N[C@@H](CC(=O)O)C(=O)N[C@@H](Cc1ccccc1)C(=O)N[C@H](C(=O)N[C@@H](CCC(N)=O)C(=O)N[C@@H](Cc1c[nH]c2ccccc12)C(=O)N[C@@H](CC(C)C)C(=O)N[C@@H](CCSC)C(=O)N[C@@H](CC(N)=O)C(=O)N[C@H](C(N)=O)[C@@H](C)O)C(C)C [E16 K20-glucagon-NH2 with K^10—W—C18] | 0.05 | 0.044 | 
3 | CSCC[C@H](NC(=O)[C@H](CC(C)C)NC(=O)[C@H](Cc1c[nH]c2ccccc12)NC(=O)[C@H](CCC(N)=O)NC(=O)[C@@H](NC(=O)[C@H](Cc1ccccc1)NC(=O)[C@H](CC(=O)O)NC(=O)[C@H](CCC(N)=O)NC(=O)[C@H](C)NC(=O)[C@H](CCCNC(=N)N)NC(=O)[C@H](CCCNC(=N)N)NC(=O)C(C)(C)NC(=O)[C@H](CC(=O)O)NC(=O)[C@H](CC(C)C)NC(=O)[C@H](Cc1ccc(O)cc1)NC(=O)[C@H](CCCCN)NC(=O)[C@H](CO)NC(=O)[C@H](Cc1ccc(O)cc1)NC(=O)[C@H](CC(=O)O)NC(=O)[C@H](CO)NC(=O)[C@@H](NC(=O)[C@H](Cc1ccccc1)NC(=O)[C@@H](NC(=O)CNC(=O)[C@H](CCC(N)=O)NC(=O)C(C)(C)NC(=O)[C@@H](N)Cc1c[nH]cn1)[C@@H](C)O)[C@@H](C)O)C(C)C)C(=O)N[C@@H](CC(N)=O)C(=O)N[C@H](C(N)=O)[C@@H](C)O [Peptide 26] (H-H[Aib]QGTFTSDYSKYLD[Aib]RRAQDFVQWLMNT-NH2; N-terminus assumed) |  |  | 0.653 ± 0.285
